# Test results published in patent publication US20250085272A1, “METHODS AND SYSTEMS FOR MODULATING AND MODELING AGING AND NEURODEGENERATION DISEASES” (MEMORIAL SLOAN-KETTERING CANCER CENTER, priority 2022, published 2025).
# Entries after “also recorded” stand apart in the source; their conditions may differ.
# How the values were obtained:
# Format in all cases: cell-based, human
# APP^swe/swe neurons [1] = assay: Western blotting for pTau(S202/T205) and total Tau, APP^swe/swe neurons
# Text: (§1) Western blotting. Samples for western blotting were harvested, pelleted and snap frozen. Cell pellets were resuspended in RIPA buffer supplemented with Halt protease and phosphatase inhibitors (ThermoFisher) followed by centrifugation to clarify the sample. Protein concentration was quantified using the Precision Red Advanced Protein Assay according to manufacturer's instructions and equal amounts of protein were mixed with NuPAGE LDS Sample Buffer and NuPAGE Sample Reducing Agent and heated to 72 degrees for 10 mins. A total of 5-20 μg of protein was separated on NuPAGE Novex 4-12% Bis Tris gels and transferred by wet blotting onto PVDF membranes. Membranes were blocked in 5% milk protein or 5% BSA when probing for the phospho-Tau. Primary antibodies used for this study were: β-ACTIN (Sigma, A2228-100UL), BAG1 (Santa Cruz, sc-33704), BAG3 (Abcam, ab47124), Cas9 (Cell Signaling Technologies; 14697S), GAPDH-HRP (Santa Cruz Biotech, sc-47724 HRP), LMNB1 (Abcam, ab16048), NAE1(Cell Signaling Technologies, 14321S), NEDD8 (Abcam, ab81264), p21 (Cell Signaling Technologies, 2947), TAU (Dako, A0024), p-TAU(S202/T205) (Thermo Fisher; MN1020), UBA3 (Abcam, ab124728). Band intensity was visualized using BioRad ChemiDoc XRS+molecular imager. After imaging the membrane was re-probed with either GAPDH or β-ACTIN antibodies for normalization. Band intensity was quantified using Fiji.
# [2] = tested on: conjugation of NEDD8 to target proteins; assay: Western blotting for conjugation of NEDD8 to target proteins in cortical neurons; conditions: 1 μM; postmitotic cortical neurons; 3 hours or 7 days of treatment
# Text: as §1
# APP^swe/swe neurons [3] = assay: Western blotting for p21, LMNB1, BAG1 and BAG3; conditions: 1 μM from DIV50-DIV60
# Text: as §1
# wild-type neurons = assay: Western blotting for pTau(S202/T205) and total Tau, wild-type neurons; conditions: wild-type neurons (FIG. 23C)
# Text: as §1
# AD neurons = assay: Nuclear roundness and nuclear area of AD neurons
# [4] = tested on: wild-type or APP^swe/swe neurons; assay: Flow cytometry for aging hallmarks (proteostasis, heterochromatin, senescence)
# Description: Flow Cytometry. Neuronal cultures were dissociated to single cell suspensions using Accutase (Innovative Cell Technologies) supplemented with Neuron Isolation Enzyme for Pierce™ (Thermo 88285) solution at 1:50. Single cell suspensions were stained with Zombie UV™ Fixable Viability Kit (Biolegend 423107) at 1:2500 in PBS for 15 minutes at room temperature, followed by fixation in 4% Paraformaldehyde for 10 minutes (4° C.). Cells stained with CellEvent Senescence Green (Thermo C10840) were done so at 1:250 in assay buffer for 2 hours at 37° C. For intracellular probes, cells were permeabilized in 0.5% triton-x for 10 minutes (4° C.), and blocked in 5% BSA for 10 minutes (4° C.). Cells were stained with H3k9me3-PE antibody (Cell Signaling Technologies #13969S) diluted 1:200, and Proteostat (Enzo Life Sciences ENZ-51023-KP050) diluted 1:2500, in 5% BSA in PBS for 30 minutes at 4° C. Cells were analyzed on the Cytek Aurora Flow Cytometer. Experiments were repeated with cells from 3 independent differentiations.
# [5] = tested on: H9-Nurr1^GFP neurons having the LRRK2 G2019S mutation; assay: Viability of neurons with the LRRK2 G2019S mutation; conditions: LRRK2 G2019S neurons (FIG. 26C)
# [6] = tested on: APP^swe/swe cortical neurons; assay: pATM immunofluorescence (DNA damage); conditions: 1 μM for 7 days
# Description: Immunocytochemistry. Cells were fixed in 4% paraformaldehyde for 10 mins then permeabilized in PBS+0.3% Triton. Cells were blocked in 5% donkey or goat serum for 1 h. Primary antibody incubation was performed overnight. Primary antibodies used in this study were: p-ATM (S1981) (Thermo Fisher; MA1-2020), Cas9 (Cell Signaling Technologies; 14697S), COL1A1 (R&D; AF6220), FOXG1 (Takara; M227), Ki67 (Dako; M7240), MAP2 (Thermo Fisher; PA1-16751), NANOG (Cell Signaling Technologies; 4903S), PAX6 (Biolegend; 901301), TAU (Thermo Fisher; MN1000), p-TAU (S235) (Thermo Fisher; PA5-104785). For all image quantifications images were taken from 3 individual wells and averaged. This was repeated three times with neurons from independent differentiations. Volocity was used to count MAP2+ and Ki67+ cells with pyknotic. DAPI^bright nuclei excluded from the cell count. FIJI was used for TAU and pATM quantifications.
# [7] = tested on: neurons with the PSEN^M146V/M146V mutation; assay: Viability of neurons with the PSEN^M146V/M146V mutation; conditions: PSEN^M146V/M146V neurons (FIG. 25B)
# APP^swe/swe neurons [8] = assay: Senescence associated β-gal, brightfield images; conditions: 1 μM for 10 days
compound,measurement,setting,value
"NS(=O)(=O)OC[C@@H]1C[C@@H](n2ccc3c(N[C@H]4CCc5ccccc54)ncnc32)C[C@@H]1O [MLN4924, [(1S,2S,4R)-4-[4-[[(1S)-2,3-Dihydro-1H-inden-1-yl]amino]-7H-pyrrolo[2,3-d]pyrimidin-7-yl]-2-hydroxycyclopentyl]methyl sulfamic acid ester]",changes in phosphorylated Tau,"APP^swe/swe neurons [1]; 1 μM from DIV50-DIV60, App^swe/swe versus wild-type neurons (FIGS. 4C-4F)",AD-specific changes in phosphorylated Tau
same,high molecular weight form of pTAU(AT8),APP^swe/swe neurons [1]; AD neurons (FIG. 23A-23B),increase in the high molecular weight form
same,major form of pTAU(AT8),APP^swe/swe neurons [1]; AD neurons (FIG. 23A-23B),decrease in major form of pTAU(AT8)
same,conjugation of NEDD8 to target proteins,[2],effectively block the conjugation of NEDD8 to target proteins; also recorded: blocks conjugation of NEDD8 to target proteins
same,"cellular senescence (p21, LAMNB1 Western blotting)",APP^swe/swe neurons [3],increased cellular senescence
same,"proteostasis (BAG1, BAG3 Western blotting)",APP^swe/swe neurons [3],loss of proteostasis
same,change in pTAU(AT8) forms,wild-type neurons,did not show the change
same,nuclear roundness (nuclear lamina defects),AD neurons; AD neurons (FIG. 28A),decreased nuclear roundness
same,nuclear area (cellular senescence),AD neurons; AD neurons (FIG. 28B),increased nuclear area
same,cellular hallmarks of age,"[4]; 1 μM for 7 or 10 days, AD-PSC (APP^swe/swe) cortical neurons (FIGS. 3A-3E)",induces cellular hallmarks of age
same,"cellular age (protein aggregation, senescence, histone methylation)","[4]; wild-type or APP^swe/swe neurons, versus DMSO (FIG. 27)",induces cellular age in both wild-type and disease backgrounds
same,viability,[5],reduced viability
same,pATM induction (DNA damage),[6],pATM induction
same,viability,[7],reduced viability
same,β-gal positive neurons (senescence),APP^swe/swe neurons [8],induction of showing β-gal positive
